Experimental data as given in PubChem BioAssay AID743283 (The Scripps Research Institute Molecular Screening Center, 2014).
Active and inactive are the calls of the source.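 The calls were made as follows: active = IC50 at or below 10 µM; inactive = IC50 above 10 µM.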

The molecules below were run on HEK293 Gal4-VP16 luciferase reporter counterscreen (assay: Gal4-VP16 luciferase reporter inhibitors, late-stage follow-up, counter-screen for COUP-TFII inhibitor project, cell-based, luminescence, HEK293, powder samples, round 000 (AID 743283)).

| Structure (SMILES) | IC50 |
| --- | --- |
| Cc1ccc(S(=O)(=O)CC2CSc3nc4ccccc4n32)cc1 (centres undefined) | > 85.4 µM (inactive) |
| CCN(CC)S(=O)(=O)c1cccc(NC(=O)CNc2cccc(S(=O)(=O)N3CCCC3)c2)c1 | > 85.4 µM (inactive) |
| COc1ccc(C2=Nn3c([n+](C)c4ccccc43)SC2)cc1 | > 85.4 µM (inactive) |
| Cc1oc(-c2ccc(Cl)cc2)nc1CS(=O)CC(=O)NCCCN1CCN(Cc2ccccc2)CC1 (centres undefined) | > 28.5 µM (inactive) |
| CN(CC1CCCO1)S(=O)(=O)c1ccc(C(=O)Nc2nc3cc4c(cc3s2)OCO4)cc1 (centres undefined) | > 42.7 µM (inactive) |
| Cc1cc(-n2c(C)cc(C(=O)CSc3ncnc4ccccc34)c2C)no1 | > 85.4 µM (inactive) |
| COc1ccc(CN(C)c2ccc(S(=O)(=O)N3CCN(C)CC3)cc2[N+](=O)[O-])cc1OC | > 85.4 µM (inactive) |
| COc1ccc(NS(=O)(=O)c2cccc(NC(=O)c3ccc(Cl)nc3)c2)cc1 | > 28.5 µM (inactive) |
| COc1ccc(CCNc2ncnc3sc(C)cc23)cc1OC | 30.2 µM (inactive) |
| Clc1ccc(OCCN2CCN(c3ncnc4sccc34)CC2)cc1 | > 85.4 µM (inactive) |
| O=S(=O)(NCC1CCCO1)c1ccc(-c2ccc(S(=O)(=O)NCC3CCCO3)cc2)cc1 (centres undefined) | > 85.4 µM (inactive) |
| CCOC(=O)C1CCCN(S(=O)(=O)c2ccc(S(=O)(=O)N(CC)CC)cc2)C1 (centres undefined) | > 85.4 µM (inactive) |
| Cc1cc(C)c(S(=O)(=O)NCc2ccncc2)c(C)c1 | > 85.4 µM (inactive) |
| CC(Nc1ncnc2ccccc12)c1ccccc1 (centres undefined) | > 85.4 µM (inactive) |
| Cc1nn(C)c(C)c1CN(C)S(=O)(=O)c1ccc2ccccc2c1 | > 85.4 µM (inactive) |
| Cc1ccc(OCCN2CCN(c3ncnc4sc(C)c(C)c34)CC2)cc1 | > 85.4 µM (inactive) |
| Cc1sc2ncnc(NCC3COc4ccccc4O3)c2c1C (centres undefined) | > 85.4 µM (inactive) |
| O=C(Nc1ccncc1)c1ccc(Cl)c(S(=O)(=O)N2CCc3ccccc32)c1 | 37 µM (inactive) |
| Cn1nccc1C(=O)NC1CCCc2c1cnn2-c1ccc(C(C)(C)C)cc1 (centres undefined) | > 85.4 µM (inactive) |
| CC(=O)Nc1ccccc1OCC(=O)c1cc(C)n(Cc2cccs2)c1C | 8.67 µM |
| CCOc1cc(S(=O)(=O)NCc2ccncc2)ccc1Cl | > 85.4 µM (inactive) |
| COc1ccc(CCNc2ncnc3sccc23)cc1OC | > 85.4 µM (inactive) |
| CCOC(=O)N1CCN(C(=O)CSCC(=O)Nc2nc(-c3ccc(-c4ccccc4)cc3)cs2)CC1 | 33.9 µM (inactive) |
| COc1ccc(OC)c(CCNC(=O)Cn2nc(C)c3c(C)n(-c4ccc(C)cc4)nc3c2=O)c1 | > 28.5 µM (inactive) |
| CC1Cc2cc(-c3csc(NC(=O)Cc4cccs4)n3)ccc2N1S(C)(=O)=O (centres undefined) | 11.5 µM (inactive) |
| Cc1sc2ncnc(NCCc3ccc(S(N)(=O)=O)cc3)c2c1C | > 85.4 µM (inactive) |
| Cc1cc(-n2nc3ccccc3n2)c2oc(SCC(=O)NC(C)(C)C)nc2c1 | 79.3 µM (inactive) |
| COc1ccc(NS(=O)(=O)c2ccc(-c3coc(C)n3)cc2)cc1OC | > 85.4 µM (inactive) |
| CCC1CCCCN1C(=O)c1cc(COc2ccc3ncccc3c2)on1 (centres undefined) | > 85.4 µM (inactive) |
